The record followed here is patent publication US9682141B2, “Combination of kinase inhibitors and uses thereof” (INTELLIKINE LLC, priority 2011, dated 2017).

Molecules are shown by their SMILES.

In data set [1] the test system is MDA-MB-361 tumors. Briefly: Xenogenic mouse model of breast cancer (MDA-MB-361). As to conditions: 70 mg/kg Pan-PI3K inhibitor, 60 mg/kg Compound A. The class given is in vivo.
The subject of data set [2] is marginal zone B cells. In words: Marginal zone B cells in mouse spleen (FACS). In kind it is in vivo. The following applies: 70 mg/kg Pan-PI3K inhibitor, 60 mg/kg Compound A; spleens harvested 2 hrs after last dose.
Source text: Spleens were harvested 2 hrs after the last dose, processed and stained with appropriate antibodies (marginal zone B cell: B220+;CD23−;CD21hi) and analyzed for staining on GUAVA EasyCyte FACS machine using Guava Cytosoft 5.2 software.
For data set [3], the system named is anti-TNP antibody production. Briefly: TNP-Ficoll T-cell independent B-cell activation assay. The class given is in vivo, mouse. As to conditions: mice immunized with TNP-Ficoll; 70 mg/kg GDC0941; 30, 60, 120 mg/kg Compound A; 7 days. How it is done:
To test the effects of the compounds of the present invention in suppressing T cell independent antibody production, the TNP-Ficoll B-cell activation assay is used as described herein. Compounds of the present invention are dissolved in an appropriate vehicle (e.g. 5% 1-methyl-2-pyrrolidinone, 85% polyethylene glycol 400, 10% Solutor). Compounds are administered orally approximately 1 hr before TNP-Ficoll treatment to 4-10 week old mice. To study the effects of the compounds on B-cell activation, one set of mice are grouped according to the following table:
Four animals in group 1, and eight animals in groups 2 to 7 are euthanized in CO2 2 hours after the last compound administration on day 7. […]
Serum samples are analyzed for anti-TNP antibody titers by ELISA as described herein. […] HRP substrate (200 μl ABTS solution+30% H2O2+10 ml citrate buffer) is added to each well at 100 μl/well, incubated 2-20 minutes in the dark and the amount of anti-TNP IgG3 is determined spectrophotometrically at 405 nm. Similarly, anti-TNP IgM and total anti-TNP Ab are determined using anti-mouse IgM-HRP and anti-mouse Ig-HRP respectively.
Antibody production was measured using ELISA and plotted as as a percentage of control group that were treated with vehicle.

For data set [4], the target named is PI3K α (Homo sapiens (Human), UniProt P42336). Briefly: PI 3-Kinase (human) HTRF assay, p110α/p85α. The class given is biochemical.
Data set [5] deals with PI3K β (Homo sapiens (Human), UniProt P42338). In words: PI 3-Kinase (human) HTRF assay, p110β/p85α. The class given is biochemical. Background: Time-resolved FRET reads energy transfer from a long-lived donor to a nearby acceptor.
Data set [6] deals with PI3K δ (Homo sapiens (Human), UniProt O00329). Briefly: PI 3-Kinase (human) HTRF assay, p110δ/p85α. The class given is biochemical.
For data set [7], the target named is PI3K γ (Homo sapiens (Human), UniProt P48736). In words: PI 3-Kinase (human) HTRF assay, p110γ. In kind it is biochemical. As to conditions: read-out: PI3K γ IC50.
For data set [8], the system named is T47D cells. In words: T47D proliferation. The following applies: Homo sapiens. The class given is cell-based.

Chain of PI3K α (P42336 whole entry): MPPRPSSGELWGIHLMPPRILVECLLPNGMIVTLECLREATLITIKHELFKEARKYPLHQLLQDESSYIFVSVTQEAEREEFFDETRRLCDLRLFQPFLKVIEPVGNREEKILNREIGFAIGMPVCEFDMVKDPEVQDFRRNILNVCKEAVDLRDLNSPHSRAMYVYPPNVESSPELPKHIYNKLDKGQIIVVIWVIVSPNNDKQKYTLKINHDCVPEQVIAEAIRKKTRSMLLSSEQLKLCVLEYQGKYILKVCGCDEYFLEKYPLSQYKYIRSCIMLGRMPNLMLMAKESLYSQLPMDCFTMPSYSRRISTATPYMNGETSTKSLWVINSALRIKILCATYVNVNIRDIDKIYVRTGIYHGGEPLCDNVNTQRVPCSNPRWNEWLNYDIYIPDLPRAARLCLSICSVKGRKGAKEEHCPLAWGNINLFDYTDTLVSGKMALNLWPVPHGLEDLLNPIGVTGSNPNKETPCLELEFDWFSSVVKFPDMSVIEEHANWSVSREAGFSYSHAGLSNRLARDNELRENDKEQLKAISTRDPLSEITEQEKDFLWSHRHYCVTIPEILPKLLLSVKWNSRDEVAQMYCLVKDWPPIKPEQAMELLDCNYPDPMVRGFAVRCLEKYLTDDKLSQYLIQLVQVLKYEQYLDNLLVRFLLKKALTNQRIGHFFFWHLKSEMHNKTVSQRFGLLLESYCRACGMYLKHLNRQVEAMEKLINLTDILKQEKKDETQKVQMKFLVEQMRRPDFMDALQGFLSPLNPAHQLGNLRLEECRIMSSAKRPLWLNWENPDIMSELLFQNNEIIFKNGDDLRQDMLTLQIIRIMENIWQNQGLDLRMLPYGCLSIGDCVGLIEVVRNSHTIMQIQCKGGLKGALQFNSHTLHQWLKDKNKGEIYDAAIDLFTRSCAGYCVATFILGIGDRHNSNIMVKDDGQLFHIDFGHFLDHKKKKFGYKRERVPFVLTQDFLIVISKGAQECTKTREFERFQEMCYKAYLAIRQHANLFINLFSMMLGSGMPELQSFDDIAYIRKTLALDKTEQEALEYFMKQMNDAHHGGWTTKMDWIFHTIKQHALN
Chain of PI3K α (P27986 whole entry partner): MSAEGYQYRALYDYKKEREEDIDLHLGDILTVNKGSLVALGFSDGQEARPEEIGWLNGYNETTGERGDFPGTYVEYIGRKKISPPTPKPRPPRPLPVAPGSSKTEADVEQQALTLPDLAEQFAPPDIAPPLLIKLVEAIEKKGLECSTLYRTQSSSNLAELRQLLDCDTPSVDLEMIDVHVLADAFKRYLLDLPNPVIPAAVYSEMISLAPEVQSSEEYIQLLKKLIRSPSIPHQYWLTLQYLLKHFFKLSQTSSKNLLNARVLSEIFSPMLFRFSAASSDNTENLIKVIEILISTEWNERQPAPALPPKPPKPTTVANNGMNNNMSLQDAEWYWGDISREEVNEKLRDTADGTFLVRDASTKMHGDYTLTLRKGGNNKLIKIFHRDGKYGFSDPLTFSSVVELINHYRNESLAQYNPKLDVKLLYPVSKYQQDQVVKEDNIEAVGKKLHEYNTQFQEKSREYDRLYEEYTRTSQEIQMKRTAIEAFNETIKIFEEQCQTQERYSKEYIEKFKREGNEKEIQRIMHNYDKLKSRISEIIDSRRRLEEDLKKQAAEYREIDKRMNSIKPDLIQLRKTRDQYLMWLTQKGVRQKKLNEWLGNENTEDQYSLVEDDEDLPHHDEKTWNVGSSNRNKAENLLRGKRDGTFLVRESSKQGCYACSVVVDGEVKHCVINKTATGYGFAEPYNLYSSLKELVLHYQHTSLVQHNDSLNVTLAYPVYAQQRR
Chain of PI3K β (P42338 whole entry): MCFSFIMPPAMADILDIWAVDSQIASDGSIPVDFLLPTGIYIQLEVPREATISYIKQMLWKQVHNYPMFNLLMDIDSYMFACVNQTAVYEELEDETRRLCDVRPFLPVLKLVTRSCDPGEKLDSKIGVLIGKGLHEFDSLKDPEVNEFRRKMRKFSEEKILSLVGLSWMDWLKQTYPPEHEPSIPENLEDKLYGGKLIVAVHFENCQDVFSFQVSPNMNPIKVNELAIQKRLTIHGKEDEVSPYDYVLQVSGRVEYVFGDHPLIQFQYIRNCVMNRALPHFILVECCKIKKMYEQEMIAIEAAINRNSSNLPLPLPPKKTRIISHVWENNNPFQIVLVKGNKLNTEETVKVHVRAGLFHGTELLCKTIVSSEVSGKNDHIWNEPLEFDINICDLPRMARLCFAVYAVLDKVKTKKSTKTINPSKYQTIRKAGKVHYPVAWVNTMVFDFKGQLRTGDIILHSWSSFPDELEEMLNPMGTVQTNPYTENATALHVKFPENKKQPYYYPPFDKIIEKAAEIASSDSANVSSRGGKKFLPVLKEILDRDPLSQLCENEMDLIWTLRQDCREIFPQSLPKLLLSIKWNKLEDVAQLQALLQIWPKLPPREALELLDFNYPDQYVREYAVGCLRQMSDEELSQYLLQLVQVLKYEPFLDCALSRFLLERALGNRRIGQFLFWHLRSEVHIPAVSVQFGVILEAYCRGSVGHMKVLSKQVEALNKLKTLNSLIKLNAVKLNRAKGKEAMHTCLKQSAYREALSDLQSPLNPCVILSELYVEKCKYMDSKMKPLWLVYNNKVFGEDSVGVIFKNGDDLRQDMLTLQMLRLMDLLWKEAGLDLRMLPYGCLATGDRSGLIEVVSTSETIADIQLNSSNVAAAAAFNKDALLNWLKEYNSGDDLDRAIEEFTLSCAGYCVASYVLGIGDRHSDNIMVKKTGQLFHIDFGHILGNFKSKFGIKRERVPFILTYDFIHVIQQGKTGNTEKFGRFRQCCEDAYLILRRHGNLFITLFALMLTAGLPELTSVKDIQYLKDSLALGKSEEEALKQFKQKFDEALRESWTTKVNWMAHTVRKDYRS
Chain of PI3K β (P27986 whole entry partner): as the sequence (P27986 whole entry partner) above
Chain of PI3K γ (P48736 whole entry): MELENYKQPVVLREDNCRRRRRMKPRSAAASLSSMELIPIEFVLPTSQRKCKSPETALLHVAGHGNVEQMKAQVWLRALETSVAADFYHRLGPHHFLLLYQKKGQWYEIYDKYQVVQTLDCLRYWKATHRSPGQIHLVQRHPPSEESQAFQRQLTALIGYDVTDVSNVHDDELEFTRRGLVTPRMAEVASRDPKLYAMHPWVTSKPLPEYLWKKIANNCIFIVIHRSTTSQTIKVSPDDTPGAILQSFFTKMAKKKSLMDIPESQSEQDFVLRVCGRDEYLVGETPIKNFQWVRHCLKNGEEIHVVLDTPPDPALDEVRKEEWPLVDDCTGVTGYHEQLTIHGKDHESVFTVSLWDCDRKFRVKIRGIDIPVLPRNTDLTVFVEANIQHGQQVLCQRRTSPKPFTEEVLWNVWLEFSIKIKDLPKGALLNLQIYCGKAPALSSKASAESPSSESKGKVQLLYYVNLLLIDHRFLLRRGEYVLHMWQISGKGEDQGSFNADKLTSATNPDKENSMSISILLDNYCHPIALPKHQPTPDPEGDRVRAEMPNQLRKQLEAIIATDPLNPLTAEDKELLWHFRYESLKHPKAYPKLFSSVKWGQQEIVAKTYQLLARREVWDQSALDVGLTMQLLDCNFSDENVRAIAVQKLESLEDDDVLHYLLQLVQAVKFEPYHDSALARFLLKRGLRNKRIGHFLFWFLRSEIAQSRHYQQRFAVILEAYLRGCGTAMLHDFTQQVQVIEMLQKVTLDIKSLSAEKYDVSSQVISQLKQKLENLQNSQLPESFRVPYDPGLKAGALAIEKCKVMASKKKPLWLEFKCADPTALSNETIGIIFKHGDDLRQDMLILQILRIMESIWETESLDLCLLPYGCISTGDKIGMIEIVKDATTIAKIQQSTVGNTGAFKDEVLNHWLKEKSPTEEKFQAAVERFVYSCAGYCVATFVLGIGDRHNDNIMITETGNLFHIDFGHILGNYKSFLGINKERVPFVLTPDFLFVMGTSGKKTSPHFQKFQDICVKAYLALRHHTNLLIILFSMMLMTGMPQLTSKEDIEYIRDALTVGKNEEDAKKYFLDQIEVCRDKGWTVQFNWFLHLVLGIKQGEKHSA
Chain of PI3K δ (O00329 whole entry): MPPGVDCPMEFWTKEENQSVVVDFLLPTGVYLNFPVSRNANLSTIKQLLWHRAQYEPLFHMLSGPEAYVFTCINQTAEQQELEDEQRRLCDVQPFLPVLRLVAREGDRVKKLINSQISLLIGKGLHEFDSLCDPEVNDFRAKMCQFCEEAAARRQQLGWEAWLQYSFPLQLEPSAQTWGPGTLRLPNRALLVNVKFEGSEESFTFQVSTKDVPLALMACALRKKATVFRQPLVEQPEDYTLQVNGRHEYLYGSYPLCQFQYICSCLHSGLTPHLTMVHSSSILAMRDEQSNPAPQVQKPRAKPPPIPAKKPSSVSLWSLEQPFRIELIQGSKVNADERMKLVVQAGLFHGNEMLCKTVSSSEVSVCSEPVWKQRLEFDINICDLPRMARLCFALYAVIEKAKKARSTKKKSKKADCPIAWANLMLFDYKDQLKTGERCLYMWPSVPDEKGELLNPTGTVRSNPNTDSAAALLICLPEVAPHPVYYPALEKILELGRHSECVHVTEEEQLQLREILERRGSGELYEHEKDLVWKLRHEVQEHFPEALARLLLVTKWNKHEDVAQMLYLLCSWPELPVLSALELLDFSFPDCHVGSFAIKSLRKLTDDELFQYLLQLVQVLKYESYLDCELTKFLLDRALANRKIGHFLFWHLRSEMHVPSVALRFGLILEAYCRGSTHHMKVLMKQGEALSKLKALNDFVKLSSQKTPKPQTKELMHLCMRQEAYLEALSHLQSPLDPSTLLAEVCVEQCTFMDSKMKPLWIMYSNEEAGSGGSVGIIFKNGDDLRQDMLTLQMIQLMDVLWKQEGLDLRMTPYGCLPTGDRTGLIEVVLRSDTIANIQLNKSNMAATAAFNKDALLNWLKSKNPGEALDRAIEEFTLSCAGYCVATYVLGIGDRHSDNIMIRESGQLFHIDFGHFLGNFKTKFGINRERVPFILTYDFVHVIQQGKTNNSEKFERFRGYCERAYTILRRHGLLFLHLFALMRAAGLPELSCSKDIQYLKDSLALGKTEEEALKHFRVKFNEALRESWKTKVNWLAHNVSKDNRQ
Chain of PI3K δ (P27986 whole entry partner): as the sequence (P27986 whole entry partner) above

In the case of `CS(=O)(=O)N1CCN(Cc2cc3nc(-c4cccc5[nH]ncc45)nc(N4CCOCC4)c3s2)CC1` [Pan-PI3K inhibitor, GDC0941], in data set [1], the “reduction in tumor weight” value was “reduction in tumor weight”. In addition, the “presence of MZB cells in mouse spleen” value in data set [2] is on record as “reduced presence of MZB cells”. Besides, in data set [3], the “B cell function in vivo (antibody production, % of vehicle control)” value was “blocks B cell function in vivo”.

On to `Nc1nc2cc(-c3ccc4ncc(C(=O)NC5CC5)n4c3)ccc2o1`, for which the IC50 – broadly, the concentration needed to halve the response being measured – is < 0.1 µM in data set [4]; < 10 µM in data set [5]; < 1 µM in data set [6]; < 0.1 µM in data set [7]; < 10 µM in data set [8].
